Laboratory results: article PMC8569681, “New Pyrimidine and Pyridine Derivatives as Multitarget Cholinesterase Inhibitors: Design, Synthesis, and In Vitro and In Cellulo Evaluation” (ACS Chemical Neuroscience, 2021)
Read-outs that look alike come from different tables or passages of the source.

Key:
[1] = target: T1, Electrophorus electricus AChE (EeAChE) (Electrophorus electricus, UniProt O42275); assay: Percent inhibition of EeAChE, Ellman's spectrophotometric method; format: biochemical; conditions: for inhibition at 90 µM: read-out: % inhibition vs EeAChE ± SD (90 uM), 90 uM; for inhibition at 900 µM: read-out: % inhibition vs EeAChE ± SD (900 uM), 900 uM; for inhibition at 0.9 µM: read-out: % inhibition vs EeAChE ± SD, [I] 900 nM
T1 construct: purchased Sigma-Aldrich (Milan, Italy)
Protocol: (§1) All other chemical and biological reagents and solvents used were of the highest analytical, commercially available grade. The water, utilized for the preparation of the phosphate buffer and of the compound solutions, was distilled and filtered on nylon membrane filters with a 0.2 μm pore size with the Millipore Filtration apparatus before each use. Micropipettes Labmate (BRAND Dig. 10–100 μL; Dig. 100–1000 μL; Dig. 0.1–2 μL) and Transferpette (HIGH TECH LAB LM200: 20–200 μL; LM5000: 1000–5000 μL) were used to collect the samples. The assays were carried out by a double beam UV–vis Lambda 40 Perkin Elmer spectrophotometer using optical polystyrene cuvettes (10 × 10 × 45 mm, 340–800 nm optical transparency); each measure was repeated at least in triplicate. […] The spectrophotometric method of Ellman[25] with minor modifications was used to evaluate the inhibition of ChEs. […] EeAChE and eqBChE were periodically tested to evaluate the effective enzymatic activity.
(§2) For all the synthesized compounds, the percentages of inhibition toward AChE of Electrophorus electricus (EeAChE) and equine BChE (eqBChE) were evaluated.
Three milliliters of a solution in 0.1 M phosphate buffer (pH = 7.4) containing DTNB (0.25 mM) and EeAChE (0.083 UmL^–1) or eqBChE (0.083 UmL^–1) was placed in a polystyrene cuvette of 1.0 cm path length; 1 μL of a […] With this solution, the blank was made. […] Each experiment was repeated at least in triplicate.

equine BChE (eqBChE) = target: T2, equine BChE (eqBChE) (Equus caballus, UniProt P81908); assay: Percent inhibition of eqBChE, Ellman's spectrophotometric method; format: biochemical; conditions: for inhibition at 0.9 µM: [I] 900 nM; for % inhibition vs eqBChE ± SD (900 uM): 900 nM
T2 construct: purchased Sigma-Aldrich (Milan, Italy)
Protocol: On the synthesized compounds, enzymatic inhibition studies were carried out toward Electrophorus electricus AChE (EeAChE) and equine BChE (eqBChE) according to Ellman’s spectrophotometric method.[25]
as §1, §2
Three milliliters of a solution in 0.1 M phosphate buffer (pH = 7.4) containing DTNB (0.25 mM) and EeAChE (0.083 UmL^–1) or eqBChE (0.083 UmL^–1) was placed in a polystyrene cuvette of 1.0 cm path length; 1 μL of a solution in DMSO of the tested compound was added to obtain a cuvette concentration range of 9–0.09 μM. With this solution, the blank was made. […] Each experiment was repeated at least in triplicate.

[2] = Antioxidant activity, DPPH spectrophotometric method; conditions: DPPH, absorbance at 515 nm
Protocol: The antioxidant activity assays were carried out according to the 2,2-diphenyl-1-picrylhydrazyl (DPPH) spectrophotometric method.[34] Initially, to assess whether the compounds had antioxidant activity and to define the time required by each antioxidant to reach the steady state, the reduction in absorbance over time at 515 nm of a solution of DPPH mixed with the tested compound was recorded until reaching the plateau. […] The value of EC50 can be extrapolated by plotting the percentage of residual DPPH at the steady state as a function of the molar ratio of the antioxidant to initial DPPH.
2,2-Diphenyl-1-picrylhydrazyl (DPPH), MeOH, and ascorbic acid, used as the reference standard, were purchased from Sigma-Aldrich. Micropipettes Labmate (BRAND Dig. 10–100 μL; Dig. 100–1000 μL) and Transferpette (HIGH TECH LAB LM200: 20–200 μL; LM5000: 1000–5000 μL) were used to collect the samples. The assays were carried out by a double beam UV–vis Lambda 40 Perkin Elmer spectrophotometer using optical polystyrene cuvettes (10 × 10 × 45 mm, 340–800 nm optical transparency); each measure was repeated at least in triplicate. For data processing, UV-WIN Lab version 2.0 (Perkin Elmer Corporation) was used. The antioxidant activity of the tested compounds was evaluated by the DPPH method[34] based on the ability of antioxidant compounds to react with the stable radical DPPH, which has a maximum absorption at about 515 nm. Thus, by measuring the decrease in absorbance over time of DPPH solutions to which increasing amounts of the tested compound are added, the antioxidant activity of the compound can be determined.
[…]. To 2.90 mL of MeOH, 60 μL of a DPPH solution in MeOH (∼1.2 mM) and 40 μL of an antioxidant solution in MeOH (4.5 mM) were added to have in the cuvette concentrations of DPPH equal to about 25 μM and of antioxidant equal to 60 μM. The exact DPPH concentration was calculated through the Lambert–Beer relation, known the extinction coefficient of DPPH at 515 nm, equal to 1.25 × 10^4.[34] The absorbance was recorded until the plateau was reached.
. To obtain the initial DPPH concentration, 2.94 mL of MeOH and 60 μL of the DPPH solution in MeOH (∼1.2 mM) were placed in a polystyrene cuvette and the absorbance was recorded at 515 nm. The exact initial DPPH concentration was calculated through the Lambert–Beer relation. For subsequent measurements, the cuvettes were set up by introducing the opportune volume of MeOH to reach a total volume of 3 mL, 60 μL of the DPPH solution in MeOH (∼1.2 mM, to have a final concentration of ∼25 μM), and the appropriate volumes of the antioxidant stock solution in MeOH to have final concentrations between 1.5 and 12 μM for 20 and between 5 and 60 μM for 18 and 30; the absorbance was recorded at 515 nm at the plateau and then after 1 min for compound 20 and after 90 min for compounds 18 and 30. Each measure was repeated four times. With absorbance data, the percentages of residual DPPH at steady state were obtained using the following equation: [drawing 3] where Ac is the average of absorbance in the presence of antioxidant at plateau and A0 is the average of the initial absorbance of DPPH.
The same procedure was performed using ascorbic acid as the antioxidant at cuvette concentrations between 1.5 and 18 μM, recording the absorbance at 515 nm after 2 min from the preparation of the cuvettes.

[3] = read-out: % inhibition vs EeAChE ± SD (9 uM), 9 uM, supplement csv
[4] = read-out: % inhibition vs EeAChE ± SD, [I] 9 μM, 0.0833 U/mL enzyme, 100 μM acetylthiocholine
[5] = [I] 9 μM, 0.0833 U/mL enzyme, 100 μM acetylthiocholine, read-out: % inhibition vs eqBChE ± SD
[6] = read-out: % inhibition vs eqBChE ± SD (9 uM), 9 uM, supplement csv
[7] = 0.0833 U/mL enzyme, 100 μM acetylthiocholine, read-out: % inhibition vs eqBChE ± SD
[8] = 0.0833 U/mL enzyme, 100 μM acetylthiocholine

T2 sequence (P81908 whole entry): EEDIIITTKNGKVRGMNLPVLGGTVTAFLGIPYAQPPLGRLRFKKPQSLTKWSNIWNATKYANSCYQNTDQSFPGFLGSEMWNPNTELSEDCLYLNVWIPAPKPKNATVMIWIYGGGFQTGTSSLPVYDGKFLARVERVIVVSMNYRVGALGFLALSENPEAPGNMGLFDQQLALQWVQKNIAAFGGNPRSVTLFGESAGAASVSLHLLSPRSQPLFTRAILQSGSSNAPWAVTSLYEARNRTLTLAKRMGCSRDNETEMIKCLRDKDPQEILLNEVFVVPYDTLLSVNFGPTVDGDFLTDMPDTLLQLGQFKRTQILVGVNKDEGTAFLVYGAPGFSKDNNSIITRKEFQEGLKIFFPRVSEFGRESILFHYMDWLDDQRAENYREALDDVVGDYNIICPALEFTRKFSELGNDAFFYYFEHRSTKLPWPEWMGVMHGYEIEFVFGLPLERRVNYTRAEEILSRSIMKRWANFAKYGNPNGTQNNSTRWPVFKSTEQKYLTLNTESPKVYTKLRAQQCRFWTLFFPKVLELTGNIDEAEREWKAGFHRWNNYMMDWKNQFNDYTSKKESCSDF
T1 sequence (O42275 24-633): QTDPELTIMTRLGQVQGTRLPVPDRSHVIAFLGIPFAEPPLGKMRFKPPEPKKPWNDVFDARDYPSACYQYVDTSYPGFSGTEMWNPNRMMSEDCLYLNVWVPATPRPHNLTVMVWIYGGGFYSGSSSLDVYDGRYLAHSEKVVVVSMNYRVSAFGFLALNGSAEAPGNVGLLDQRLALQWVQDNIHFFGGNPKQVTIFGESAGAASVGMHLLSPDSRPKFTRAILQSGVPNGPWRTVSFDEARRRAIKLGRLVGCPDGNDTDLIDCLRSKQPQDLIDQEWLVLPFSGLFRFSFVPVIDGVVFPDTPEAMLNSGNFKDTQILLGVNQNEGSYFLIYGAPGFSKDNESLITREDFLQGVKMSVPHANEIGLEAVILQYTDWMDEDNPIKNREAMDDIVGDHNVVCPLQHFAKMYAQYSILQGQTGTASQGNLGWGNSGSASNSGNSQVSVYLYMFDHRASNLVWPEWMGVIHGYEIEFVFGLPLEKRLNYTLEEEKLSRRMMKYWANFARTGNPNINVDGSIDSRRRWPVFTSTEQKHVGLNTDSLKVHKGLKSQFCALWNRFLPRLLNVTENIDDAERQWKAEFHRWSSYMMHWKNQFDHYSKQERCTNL

| Structure (SMILES) | inhibition at 9 µM [1, 3] | inhibition at 9 µM [1, 4] | inhibition at 9 µM (equine BChE (eqBChE); [5]) | inhibition at 9 µM (equine BChE (eqBChE); [6]) | inhibition at 90 µM ([1]; supplement csv) | inhibition at 0.9 µM (equine BChE (eqBChE); [7]) | reaction time (time for reaching the plateau) [2] | inhibition at 900 µM ([1]; supplement csv) | inhibition at 0.9 µM [1, 8] | % inhibition vs eqBChE ± SD (900 uM) (equine BChE (eqBChE); supplement csv) |
| --- | --- | --- | --- | --- | --- | --- | --- | --- | --- | --- |
| Clc1cc(CNCCCCCNc2ncccn2)cc(Cl)n1 [Compound 12, N^1-((2,6-Dichloropyridin-4-yl)methyl)-N^5-(pyrimidin-2-yl)pentane-1,5-diamine] | 16.5 ± 2% | 16.5 ± 2% | 8.5 ± 1.3% | 8.5 ± 1.3% |  |  |  |  |  |  |
| Oc1cccc(CNCCCCCCNc2ccccn2)c1 [Compound 31, 3-(((6-(Pyridin-2-ylamino)hexyl)amino)methyl)phenol] | 42.2 ± 2.2% | ~40% | 56 ± 3.8% | 19.1 ± 2.2% | 56 ± 3.8% | 19.1 ± 2.2% |  |  |  |  |
| O=C1O[C@H]([C@@H](O)CO)C(O)=C1O [ascorbic acid, reference compound] |  |  |  |  |  |  | 2 min |  |  |  |
| Oc1cccc(CNCCCCCCNc2ccccn2)c1O [Compound 32, 3-(((6-(Pyridin-2-ylamino)hexyl)amino)methyl)benzene-1,2-diol] | 63.9 ± 2.2% | ~60% | 59.8 ± 1.5% | 11.5 ± 2.9% | 59.8 ± 1.5% | 11.5 ± 2.9% |  | 23.9 ± 1.5% | 23.9 ± 1.5% |  |
| CC(C)(C)OC(=O)NCCCCCCNc1ncccn1 [Compound 2, tert-Butyl {6-[(Pyrimidin-2-yl)amino]hexyl}carbamate] |  |  |  |  |  |  | 1 min |  |  |  |
| Brc1ccc(CNCCCCCNc2ncccn2)cc1 [Compound 10, N^1-(4-Bromobenzyl)-N^5-(pyrimidin-2-yl)pentane-1,5-diamine] | 14.5 ± 0.7% | 14.5 ± 0.7% | 17.1 ± 0.9% | 17.1 ± 0.9% |  |  |  |  |  |  |
| Brc1ccc(CNCCCCCCNc2ncccn2)cc1 [Compound 14, N^1-(4-Bromobenzyl)-N^6-(pyrimidin-2-yl)hexane-1,6-diamine] | 23 ± 1.6% | 23 ± 1.6% | 38.6 ± 5.5% | 38.6 ± 5.5% |  | 6.6 ± 0.2% |  |  |  | 6.6 ± 0.2% |
| COc1cc(CNCCCCCCNc2ccccn2)cc(OC)c1OC [Compound 29, N^1-(Pyridin-2-yl)-N^6-(3,4,5-trimethoxybenzyl)hexane-1,6-diamine] | 30.9 ± 1.1% | 24 to 30% | 68.9 ± 4.1% | 19 ± 2.5% | 68.9 ± 4.1% | 19 ± 2.5% |  |  |  |  |
| Brc1ccc(CNCCCCCNc2ccccn2)cc1 [Compound 24, N^1-(4-Bromobenzyl)-N^5-(pyridin-2-yl)pentane-1,5-diamine] | 18.2 ± 3.5% | 18.2 ± 3.5% | 56.4 ± 1.6% | 12.1 ± 4.6% | 56.4 ± 1.6% | 12.1 ± 4.6% |  |  |  |  |
| COc1cc(CNCCCCCCNc2ncccn2)cc(OC)c1OC [Compound 17, N^1-(Pyrimidin-2-yl)-N^6-(3,4,5-trimethoxybenzyl)hexane-1,6-diamine] | 16.4 ± 2.8% | 16.4 ± 2.8% | 29.4 ± 4.5% | 29.4 ± 4.5% |  |  |  |  |  |  |
| COc1ccccc1CNCCCCCNc1ncccn1 [Compound 11, N^1-(2-Methoxybenzyl)-N^5-(pyrimidin-2-yl)pentane-1,5-diamine] | 62.2 ± 0.9% | 60 to 70% | 22.1 ± 1.3% | 22.1 ± 1.3% |  |  |  | 14.6 ± 0.6% | 14.6 ± 0.6% |  |
| Clc1cc(CNCCCCCCNc2ccccn2)cc(Cl)n1 [Compound 33, N^1-((2,6-Dichloropyridin-4-yl)methyl)-N^6-(pyridin-2-yl)hexane-1,6-diamine] | 40.6 ± 4.1% | ~40% | 68.3 ± 2.9% | 13 ± 0.7% | 68.3 ± 2.9% | 13 ± 0.7% |  | 6.2 ± 1.1% | 6.2 ± 1.1% |  |
| COc1ccccc1CNCCCCCCNc1ncccn1 [Compound 16, N^1-(2-Methoxybenzyl)-N^6-(pyrimidin-2-yl)hexane-1,6-diamine] | 68.3 ± 0.7% | 60 to 70% | 43.9 ± 4.8% | 43.9 ± 4.8% |  | 6.2 ± 0.4% |  | 15.7 ± 1.1% | 15.7 ± 1.1% | 6.2 ± 0.4% |
| Clc1cc(CNCCCCCCNc2ncccn2)cc(Cl)n1 [Compound 21, N^1-((2,6-Dichloropyridin-4-yl)methyl)-N^6-(pyrimidin-2-yl)hexane-1,6-diamine] | 18.5 ± 1.8% | 18.5 ± 1.8% | 26.8 ± 0.4% | 26.8 ± 0.4% |  |  |  |  |  |  |
| Clc1ccc(CNCCCCCCNc2ncccn2)cc1 [Compound 15, N^1-(4-Chlorobenzyl)-N^6-(pyrimidin-2-yl)hexane-1,6-diamine] | 29.9 ± 1.2% | 29.9 ± 1.2% | 21.5 ± 1.2% | 21.5 ± 1.2% |  |  |  |  |  |  |
| Clc1ccc(CNCCCCCCNc2ccccn2)cc1 [Compound 27, N^1-(4-Chlorobenzyl)-N^6-(pyridin-2-yl)hexane-1,6-diamine] | 27.7 ± 4.7% | 24 to 30% | 73.2 ± 3.6% | 17.7 ± 5.2% | 73.2 ± 3.6% | 17.7 ± 5.2% |  |  |  |  |
